Assay results published in patent publication US6780853B1, “Neuroactive steroids of the androstane and pregnane series” (priority 1995, dated 2004).
pIC50: −log10 of the molar value. Counter-ions that a name gives are not always drawn.

Molecular target: GABA receptor complex (GRC)
Test: [35S]TBPS binding in rat cerebral cortex P2 homogenate
Conditions: for pIC50: concentration to inhibit 50% of control [35S]TBPS binding, 2 nM [35S]TBPS; for IMAX (maximum inhibition): maximum inhibition of [35S]TBPS binding
Description: To those skilled in the art, it is known that the modulation of [^35S]t-butylbicyclophosphorothionate ([^35S]TBPS) binding is a measure of the potency and efficacy of drugs acting at the GRC, which drugs may be of potential therapeutic value in the treatment of stress, anxiety, and seizure disorders (Squires, R. F., et al., Mol, Pharmacol., 23:326 (1983); Lawrence, L. J., et al., Biochem. Biophys. Res. Comm., 123:1130-1137 (1984); Wood, et al., Pharmacol, Exp. Ther., 231:572-576 (1984)). Several experiments were performed previously to determine the nature of the modulation of [^35S]TBPS as affected by neuroactive steroids. […] Furthermore, these compounds have high potency and efficacy at the GRC, with stringent structural requirements for such activity.
The procedures for performing this assay are fully discussed in: (1) Gee, K. W. et al., European Journal of Pharmacology, 136:419-423 (1987)); and (2) Gee, et al., Molecular Pharmacology 30:218 (1986). These procedures were performed as follows:
Brains from male Sprague-Dawley rats were removed immediately following sacrifice and the cerebral cortices dissected over ice. A P2 homogenate was prepared as previously described (Gee, et al., Molecular Pharmacology 30:218 (1986)). Briefly, the cortices were gently homogenized in 032 M sucrose followed by centrifugation at 1000×g for 10 minutes. The supernatant was collected and centrifuged at 9000×g for 20 minutes. The resultant P2 pellet was suspended as a 10% (original wet weight/volume) suspension in 50 mM Na/K phosphate buffer (pH 7.4) 200 mM NaCl to form the homogenate.
One hundred microliter […] aliquots of the P2 homogenate (0.5 milligrams (mg) protein) were incubated with 2 nanomolar (nM) [^35S]TBPS (70-110 curies/millimole; New England Nuclear, Boston, Mass.) in the presence or absence of the naturally occurring steroids or their synthetic derivatives to be tested. The tested compounds were dissolved in dimethylsulfoxide (Baker Chem. Co., Phillipsburg, N.J.) and added to the incubation mixture in 5 μL aliquots. The incubation mixture was brought to a final volume of 1 mL with buffer. Non-specific binding was defined as binding in the presence of […]. The effect and specificity of GABA (Sigma Chem. Co., St. Louis, Mo.) was evaluated by performing all assays in the presence of GABA plus (+)bicuculline (Sigma Chem. Co.). Incubations maintained at 25° C. for 90 minutes (steady state conditions) were terminated by rapid filtration through glass fiber filters (No. 32, Schleicher and Schuell, Keene, N.H.). Filter-bound radioactivity was quantitated by liquid scintillation spectrophotometry. Kinetic data and compound/[^35S]TBPS dose-response curves were analyzed by nonlinear regression using a computerized iterative procedure to obtain rate constants and IC50 (concentration of compound at which half-maximal inhibition of basal [^35S]TBPS binding occurs) values.
Various compounds were screened to determine their potential as modulators of [^35S]TBPS binding in vitro. These assays were performed in accordance with the above discussed procedures. Based on these assays, we have established the structure-activity requirements for their specific interaction at the GRC and their rank order potency and efficacy. Experimental data obtained in this assay for a number of 3α-hydroxypregnan-20-one derivatives is discussed in Gee, K. W. et al., European Journal of Pharmacology, 136:419-423 (1987) and in U.S. Pat. No. 5,232,917. Table 1 provides IC50 and maximum inhibition (IMAX) measurements for numerous compounds, including examples of compounds disclosed and claimed herein. IC50 is defined as concentration of compounds to inhibit 50% of control [^35S]TBPS binding. It is an indication of a compound's in vitro potency. Maximum inhibition is an indication of a compound's in vitro efficacy.

Row | SMILES | pIC50 | IMAX (maximum inhibition)
1 | CC12CCC(O)CC1CCC1C2CCC2(C)C(C(=O)CS(=O)(=O)O)CCC12 (stereo not drawn) [3α-Hydroxy-21-sulfonic acid-5β-pregnan-20-one 21-sodium salt] | 6.14 | 62%
2 | C#C[C@@]1(O)CC[C@@]2(C)[C@H](CC[C@@H]3[C@@H]2CC[C@]2(C)[C@@H](C(=O)CS(=O)(=O)CCCO)CC[C@@H]32)C1 [3β-Ethynyl-3α-hydroxy-21-hydroxypropylsulfonyl-5β-pregnan-20-one] | 6.71 | 107%
3 | CCCO[C@H]1C[C@@]2(C)[C@@H](CC[C@@H]3[C@@H]2CC[C@]2(C)[C@@H](C(=O)CSc4ccncc4)CC[C@@H]32)C[C@@H]1O [3α-hydroxy-2β-propoxy-21-(pyrid-4-ylthio)-5α-pregnan-20-one] | 7.85 | 98%
4 | CC(=O)[C@H]1CC[C@H]2[C@@H]3CCC4=CC(=O)CC[C@]4(C)[C@H]3CC[C@]12C [Progesterone, reference compound] | 5.28 | 100%
5 | C[n+]1ccc(SCC(=O)C2CCC3C4CCC5CC(O)CCC5(C)C4CCC23C)cc1 (stereo not drawn) [3α-Hydroxy-21-(4′-pyridyl)thio-5β-pregnan-20-one N-methyl io] [3α-hydroxy-21-(pyrid-4-ylthio)-5β-pregnan-20-one N-methyl iodide] | 6.58 | 53%
6 | C[C@]12C[C@H](O)[C@H]3[C@@H](CCC4=CC(=O)CC[C@@]43C)[C@@H]1CC[C@@H]2C(=O)CO [4-Pregnan-11β,21-diol-3,20-dione, reference compound] | < 3.00 | 30%
7 | C#CC1(O)CCC2(C)C(CCC3C2CCC2(C)C(C(=O)CSCCC(=O)O)CCC32)C1 (stereo not drawn) [3β-ethynyl-3α-hydroxy-21-thiopropanoate-5β-pregnan-20-one sodium salt] | 5.99 | 101%
8 | C#CCO[C@H]1CC[C@H]2[C@@H]3CC[C@H]4C[C@](C)(O)CC[C@]4(C)[C@H]3CC[C@]12C [3α-Hydroxy-3β-methyl-17β-(2-propynyloxy)-5α-androstane] | 6.79 | 94%
9 | C[n+]1ccc(SCC(=O)C2CCC3C4CCC5CC(O)CCC5(C)C4CCC23C)cc1 (stereo not drawn) [3α-Hydroxy-21-(pyrid-4-ylthio)-5α-pregnan-20 -one N-methyl i] [3α-Hydroxy-21-(pyrid-4-ylthio)-5α-pregnan-20-one N-methyl iodide] | 6.73 | 100%
10 | C[C@]12CC[C@@H](O)C[C@H]1CC[C@@H]1[C@@H]2CC[C@]2(C)[C@@H](C(=O)COc3ccncc3)CC[C@@H]12 [3α-Hydroxy-21-(pyrid-4-yloxy)-5β-pregnan-20-one] | 7.35 | 76%
11 | CC(=O)c1ccc(C#CC2(O)CCC3C(CCC4C3CCC3(C)CCCC43)C2)cc1 (stereo not drawn) [3α-Hydroxy-3β-(4′-acetylphenyl)ethynyl-5β-19-norandrostane] | 6.31 | 99%
12 | CC(=O)c1ccc(C#C[C@@]2(O)CC[C@@]3(C)[C@H](CC[C@@H]4[C@@H]3CC[C@]3(C)[C@@H](C(=O)CSc5ccncc5)CC[C@@H]43)C2)cc1 [3β-(4′-acetylphenyl)ethynyl-3α-hydroxy-21-(pyrid-4ylthio)-5β-pregnan-20-one] | 7.54 | 94%
13 | COCC1(O)CCC2(C)C(CCC3C2CCC2(C)C(C(=O)CS(=O)(=O)c4ccc(N5CCCC5)cc4)CCC32)C1 (stereo not drawn) [3α-Hydroxy-3β-methoxymnethyl-21-(4′-pyrrolidinophenyl)sulfonyl-5α-pregnan-20-one] | 6.68 | 101%
14 | COCC1(O)CCC2(C)C(CCC3C2CCC2(C)C(C(=O)CS(=O)(=O)c4ccc(F)cc4)CCC32)C1 (stereo not drawn) [21-(4′-fluorophenyl)sulfonyl-3α-hydroxy-3β-methoxymethyl-5α-pregnan-20-one] | 7.31 | 99%
15 | COCC1(O)CCC2(C)C(CCC3C2CCC2(C)C(C(=O)CSc4ccc(F)cc4)CCC32)C1 (stereo not drawn) [21-(4′-fluorophenylthio)-3α-hydroxy-3β-methoxymethyl-5α-pregnan-20-one] | 6.75 | 97%
16 | CC(=O)[C@H]1CC[C@H]2[C@@H]3CC[C@H]4C[C@@H](O)CC[C@]4(C)[C@H]3CC[C@]12C [3β-Hydroxy-5α-pregnan-20-one, reference compound] | < 3.00 | 33%
17 | C[C@]12CC[C@@H](O)C[C@H]1CC[C@@H]1[C@@H]2CC[C@]2(C)[C@@H](C(=O)CCc3ccncc3)CC[C@@H]12 [3α-Hydroxy-21-(4-pyridylmethyl)-5β-pregnan-20-one] | 6.73 | 103%
18 | C#C[C@@]1(O)CC[C@@]2(C)[C@H](CC[C@@H]3[C@@H]2CC[C@]2(C)[C@@H](C(=O)CSCCCO)CC[C@@H]32)C1 [3β-ethynyl-3α-hydroxy-21-hydroxypropylthio-5β-pregnan-20-one] | 7.03 | 97%
19 | CCCO[C@H]1C[C@@]2(C)[C@@H](CC[C@@H]3[C@@H]2CC[C@]2(C)[C@@H](C(=O)CS(=O)(=O)CCCS(=O)(=O)[O-])CC[C@@H]32)C[C@@H]1O.[Na+] [3α-Hydroxy-2β-propoxy-21-sulfonylpropanesulfonate-5α-pregnan-20-one sodium salt] | 5.99 | 101%
20 | C#CC1(O)CCC2(C)C(CCC3C2CCC2(C)C(C(=O)CSCCCOS(=O)(=O)O)CCC32)C1 (stereo not drawn) [3β-Ethynyl-3α-hydroxy-21-thiopropanesulfate-5β-pregnan-20-one sodium salt] | 6.95 | 104%
21 | C[C@@]12CCC[C@H]1[C@@H]1CC[C@@H]3C[C@H](O)CC[C@]3(C)[C@H]1CC2 [3α-Hydroxy-5β-androstane, reference compound] | 6.09 | 83%
22 | C#CC1(O)CCC2(C)C(CCC3C2CCC2(C)C(C(=O)C[S+]([O-])CCCO)CCC32)C1 (stereo not drawn) [3β-Ethynyl-3α-hydroxy-21-hydroxpropylsulfinyl-5β-pregnan-20-one] | 6.11 | 107%
23 | C#CC1(O)CCC2(C)C(CCC3C2CCC2(C)C(C(=O)CSCCOS(=O)(=O)O)CCC32)C1 (stereo not drawn) [3β-ethynyl-3α-hydroxy-21-thioethanesulfate-5β-pregnan-20-one trimethyl ammonium salt] | 6.49 | 101%
24 | C#C[C@@]1(O)CC[C@@]2(C)[C@H](CC[C@@H]3[C@@H]2CC[C@]2(C)[C@@H](C(=O)CSCCO)CC[C@@H]32)C1 [3β-Ethynyl-3α-hydroxy-21-hydroxyethylthio-5β-pregnan-20-one] | 6.74 | 103%
25 | C[C@@]12CCC[C@H]1[C@@H]1CC[C@H]3C[C@H](O)CC[C@]3(C)[C@H]1CC2 [3α-Hydroxy-5α-androstane, reference compound] | 6.31 | 99%
26 | CC(C)CCC[C@@H](C)[C@H]1CC[C@H]2[C@@H]3CC=C4C[C@@H](O)CC[C@]4(C)[C@H]3CC[C@]12C [Cholesterol, reference compound] |  | 0%
27 | C#CC1(O)CCC2(C)C(CCC3C2CCC2(C)C(C(=O)CSCCCS(=O)(=O)O)CCC32)C1 (stereo not drawn) [3β-ethynyl-3α-hydroxy-21-thiopropanesulfonate-5β-pregnan-20-one sodium salt] | 6.46 | 97%
28 | CO[C@H]1CC[C@H]2[C@@H]3CC[C@H]4C[C@H](O)[C@@H](OC(C)C)C[C@]4(C)[C@H]3CC[C@]12C [3α-Hydroxy-2β-isopropoxy-17β-methoxy-5α-androstane] | 7.59 | 100%
